From ChEMBL document CHEMBL3431459, “Roche carnitine palmitoyltransferase modulator screening data (supplementary data associated with the publication CHEMBL2216752)”
In brackets after ≈: the same amount, converted by molar mass.

Assays:
[1] = target: T1, Carnitine O-palmitoyltransferase 2, mitochondrial (Homo sapiens, UniProt P23786); assay: (§1) SUPPLEMENTARY: Inhibition of Carnitine palmitoyltransferase 2
T1 sequence (P23786 whole entry): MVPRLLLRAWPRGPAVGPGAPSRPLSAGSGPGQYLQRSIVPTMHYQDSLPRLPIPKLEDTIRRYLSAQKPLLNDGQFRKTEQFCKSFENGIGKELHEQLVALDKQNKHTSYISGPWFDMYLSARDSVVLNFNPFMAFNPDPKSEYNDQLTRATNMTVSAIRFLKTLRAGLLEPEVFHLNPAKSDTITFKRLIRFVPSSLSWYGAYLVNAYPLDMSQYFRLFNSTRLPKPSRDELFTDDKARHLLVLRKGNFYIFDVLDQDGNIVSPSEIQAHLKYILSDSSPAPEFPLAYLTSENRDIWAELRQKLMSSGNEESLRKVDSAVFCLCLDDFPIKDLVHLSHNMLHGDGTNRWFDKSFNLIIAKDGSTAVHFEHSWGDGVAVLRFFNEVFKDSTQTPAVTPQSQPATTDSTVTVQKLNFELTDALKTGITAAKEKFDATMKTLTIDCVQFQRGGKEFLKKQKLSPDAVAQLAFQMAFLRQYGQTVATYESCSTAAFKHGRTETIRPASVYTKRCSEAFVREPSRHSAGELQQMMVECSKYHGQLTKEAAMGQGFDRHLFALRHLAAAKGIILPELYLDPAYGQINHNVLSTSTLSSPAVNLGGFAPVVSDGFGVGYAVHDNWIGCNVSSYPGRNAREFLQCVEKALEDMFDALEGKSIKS

[2] = target: T2, Carnitine O-palmitoyltransferase 2, mitochondrial (Rattus norvegicus, UniProt P18886); assay: as §1
T2 sequence (P18886 whole entry): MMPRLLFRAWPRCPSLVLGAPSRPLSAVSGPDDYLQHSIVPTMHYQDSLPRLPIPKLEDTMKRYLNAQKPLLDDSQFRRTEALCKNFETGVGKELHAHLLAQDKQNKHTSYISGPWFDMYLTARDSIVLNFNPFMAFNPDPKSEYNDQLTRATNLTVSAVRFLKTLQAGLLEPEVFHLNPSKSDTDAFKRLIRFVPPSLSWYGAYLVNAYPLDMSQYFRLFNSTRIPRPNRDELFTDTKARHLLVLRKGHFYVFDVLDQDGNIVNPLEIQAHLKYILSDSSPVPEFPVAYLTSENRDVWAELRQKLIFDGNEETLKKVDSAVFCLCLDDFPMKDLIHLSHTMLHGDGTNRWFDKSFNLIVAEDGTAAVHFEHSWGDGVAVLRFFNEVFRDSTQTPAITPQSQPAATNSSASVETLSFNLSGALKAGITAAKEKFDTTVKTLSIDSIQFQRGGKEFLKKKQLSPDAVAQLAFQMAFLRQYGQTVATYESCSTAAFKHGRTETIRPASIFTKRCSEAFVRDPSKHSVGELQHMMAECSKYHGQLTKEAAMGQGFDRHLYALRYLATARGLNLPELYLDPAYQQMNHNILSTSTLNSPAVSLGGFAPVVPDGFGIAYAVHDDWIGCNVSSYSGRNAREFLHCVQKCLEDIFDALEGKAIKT

[3] = target: T3, Carnitine O-palmitoyltransferase 1, liver isoform (Homo sapiens, UniProt P50416); assay: (§2) SUPPLEMENTARY: Inhibition of Carnitine palmitoyltransferase 1, liver isoform
T3 sequence (P50416 whole entry): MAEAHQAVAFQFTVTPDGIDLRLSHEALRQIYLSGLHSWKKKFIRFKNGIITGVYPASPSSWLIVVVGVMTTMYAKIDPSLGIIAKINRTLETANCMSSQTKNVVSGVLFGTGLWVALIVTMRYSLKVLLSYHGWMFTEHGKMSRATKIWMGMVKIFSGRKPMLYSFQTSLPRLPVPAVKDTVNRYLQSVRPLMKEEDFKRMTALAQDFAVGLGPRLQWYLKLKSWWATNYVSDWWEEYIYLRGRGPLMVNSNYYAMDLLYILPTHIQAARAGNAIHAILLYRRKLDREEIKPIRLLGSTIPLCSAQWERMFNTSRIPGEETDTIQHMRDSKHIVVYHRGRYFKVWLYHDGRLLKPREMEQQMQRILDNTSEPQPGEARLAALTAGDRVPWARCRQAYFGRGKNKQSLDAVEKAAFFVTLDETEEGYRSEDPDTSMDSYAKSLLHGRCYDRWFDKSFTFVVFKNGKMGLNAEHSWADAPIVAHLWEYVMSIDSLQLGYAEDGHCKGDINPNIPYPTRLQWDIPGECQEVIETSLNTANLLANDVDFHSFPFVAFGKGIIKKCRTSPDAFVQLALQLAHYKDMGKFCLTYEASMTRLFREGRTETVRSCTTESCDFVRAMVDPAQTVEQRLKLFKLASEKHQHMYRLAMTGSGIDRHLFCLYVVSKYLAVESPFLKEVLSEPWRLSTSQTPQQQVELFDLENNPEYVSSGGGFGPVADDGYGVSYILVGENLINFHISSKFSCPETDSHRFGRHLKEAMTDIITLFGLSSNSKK

[4] = target: T4, Carnitine O-palmitoyltransferase 1, liver isoform (Rattus norvegicus, UniProt P32198); assay: as §2
T4 sequence (P32198 whole entry): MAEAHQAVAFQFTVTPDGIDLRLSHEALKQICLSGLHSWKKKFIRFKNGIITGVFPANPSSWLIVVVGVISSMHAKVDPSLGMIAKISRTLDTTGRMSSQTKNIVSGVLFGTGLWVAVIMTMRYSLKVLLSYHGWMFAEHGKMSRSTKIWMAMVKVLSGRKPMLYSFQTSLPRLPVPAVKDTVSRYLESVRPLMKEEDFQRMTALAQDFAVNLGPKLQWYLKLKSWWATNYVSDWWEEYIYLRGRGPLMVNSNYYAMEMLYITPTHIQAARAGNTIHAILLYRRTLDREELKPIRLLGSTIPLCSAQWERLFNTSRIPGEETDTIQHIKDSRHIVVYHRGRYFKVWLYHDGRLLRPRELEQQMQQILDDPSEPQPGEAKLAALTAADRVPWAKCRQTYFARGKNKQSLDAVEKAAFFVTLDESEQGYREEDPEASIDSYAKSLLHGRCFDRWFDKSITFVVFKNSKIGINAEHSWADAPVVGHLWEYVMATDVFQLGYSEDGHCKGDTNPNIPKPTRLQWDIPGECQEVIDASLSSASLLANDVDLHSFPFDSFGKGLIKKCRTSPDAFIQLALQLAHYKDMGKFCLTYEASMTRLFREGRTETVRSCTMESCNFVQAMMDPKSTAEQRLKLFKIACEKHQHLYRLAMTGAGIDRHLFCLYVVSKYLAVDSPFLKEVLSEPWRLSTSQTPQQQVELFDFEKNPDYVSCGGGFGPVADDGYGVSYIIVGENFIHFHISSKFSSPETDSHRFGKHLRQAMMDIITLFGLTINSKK

[5] = target: T5, Carnitine O-palmitoyltransferase 1, muscle isoform (Homo sapiens, UniProt Q92523); assay: SUPPLEMENTARY: Inhibition of Carnitine palmitoyltransferase 1, muscle isoform; design: species or system Muscle tissue
T5 sequence (Q92523 whole entry): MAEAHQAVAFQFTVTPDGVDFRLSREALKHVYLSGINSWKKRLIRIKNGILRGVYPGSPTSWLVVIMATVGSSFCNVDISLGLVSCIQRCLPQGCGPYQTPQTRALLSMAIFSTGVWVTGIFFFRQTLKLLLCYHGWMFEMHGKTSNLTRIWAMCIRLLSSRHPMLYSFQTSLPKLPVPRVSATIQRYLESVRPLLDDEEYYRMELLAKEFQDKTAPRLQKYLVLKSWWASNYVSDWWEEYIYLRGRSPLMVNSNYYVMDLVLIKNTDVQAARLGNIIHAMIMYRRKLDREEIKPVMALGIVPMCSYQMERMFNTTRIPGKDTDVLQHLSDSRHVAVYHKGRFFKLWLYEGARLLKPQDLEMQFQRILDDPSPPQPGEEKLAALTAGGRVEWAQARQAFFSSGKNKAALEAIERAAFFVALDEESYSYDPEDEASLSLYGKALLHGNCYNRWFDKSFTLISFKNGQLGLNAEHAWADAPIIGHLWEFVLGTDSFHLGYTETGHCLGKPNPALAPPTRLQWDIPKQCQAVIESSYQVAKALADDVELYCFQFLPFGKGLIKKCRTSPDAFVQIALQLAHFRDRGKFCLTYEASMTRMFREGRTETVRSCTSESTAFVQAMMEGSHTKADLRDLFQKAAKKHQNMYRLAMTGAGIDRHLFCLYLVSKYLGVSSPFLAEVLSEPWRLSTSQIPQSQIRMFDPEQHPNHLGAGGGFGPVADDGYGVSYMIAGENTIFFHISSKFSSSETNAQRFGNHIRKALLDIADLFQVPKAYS

[6] = SUPPLEMENTARY: Lyophilisation Solubility Assay (LYSA); type: physicochemical; settings: read-out: Kinetic_solubility
[7] = SUPPLEMENTARY: PAMPA permeability assay; type: physicochemical; settings: read-out: Permeability
[8] = SUPPLEMENTARY: Lipophilicity (log D) Determination by high-throughput shake-flask; type: physicochemical; settings: octanol/water

Row | IC50 [1] | IC50 [2] | IC50 [3] | IC50 [4] | IC50 [5] | solubility kinetic [6] | Papp [7] | logD [8] | SMILES
1 | 468 nM | 539 nM | 161 nM | 232 nM | > 100000 nM | 30 µg/mL (≈ 73.4 µM) | 5.52 ×10⁻⁶ cm/s | 3.23 | CCOc1ccc2c(c1)CN(C(=O)[C@H]1CCCCN1C(=O)COc1ccccc1)C2
2 | 642 nM | 477 nM | 63.8 nM | 64.1 nM | > 100000 nM | 14 µg/mL (≈ 31.2 µM) | 4.45 ×10⁻⁶ cm/s | 2.8 | O=C([C@H]1CCCCN1C(=O)COc1ccccc1)N1Cc2ccc(C3CCOCC3)cc2C1
3 | 701 nM | 1120 nM | 259 nM | 263 nM | > 100000 nM | 5 µg/mL (≈ 11.5 µM) | 2.7 ×10⁻⁶ cm/s | 2.97 | O=C([C@H]1CCCCN1C(=O)COc1ccccc1)N1Cc2ccc(OCC3CC3)cc2C1
4 | 473 nM | 701 nM | 63.5 nM | 77.2 nM | > 100000 nM | 46 µg/mL (≈ 106 µM) | 4.71 ×10⁻⁶ cm/s | 2.72 | O=C([C@H]1CCCCN1C(=O)COc1ccccc1)N1Cc2ccc(C3CCOC3)cc2C1 (stereo partly drawn)

The next lines start with the molecule.

Row | SMILES | IC50 [1] | IC50 [2] | IC50 [3] | IC50 [4] | IC50 [5] | solubility kinetic [6] | Papp [7] | logD [8]
5 | O=C([C@H]1CCCCN1C(=O)COc1ccccc1)N1Cc2cc(Cl)c(N3CCOCC3)cc2C1 | 388 nM | 496 nM | 145 nM | 121 nM | > 100000 nM | 36 µg/mL (≈ 74.4 µM) | 5.91 ×10⁻⁶ cm/s | 3.24
6 | COc1ccc(Cl)cc1CN1C(=O)OCc2ccc(C(=O)Nc3nc(CC(=O)O)cs3)cc21 | > 100000 nM | > 100000 nM | 132 nM | 203 nM | 21900 nM | 50 µg/mL (≈ 102 µM) | 1.7 ×10⁻⁶ cm/s | 0.06
7 | O=C(COc1ccccc1)N1CCCC[C@@H]1c1noc(-c2cccc(-n3cc[nH]c3=O)c2)n1 | 29700 nM | 69700 nM | 59.9 nM | 458 nM | 83300 nM | 70 µg/mL (≈ 157 µM) | 7.36 ×10⁻⁶ cm/s | 2.66
8 | O=C(c1nc([C@H]2CCCCN2C(=O)COc2ccccc2)no1)N1CCC(c2ccncc2)C1 (stereo partly drawn) | 19100 nM | 57300 nM | 216 nM | 1670 nM | > 100000 nM | 204 µg/mL (≈ 442 µM) | 4.27 ×10⁻⁶ cm/s | 2.12
9 | Cn1ccc(-c2nc([C@H]3CCCCN3C(=O)COc3ccccc3)no2)n1 | > 100000 nM | > 100000 nM | 156 nM | 555 nM | > 100000 nM | 94 µg/mL (≈ 256 µM) | 9.41 ×10⁻⁶ cm/s | 2.16
10 | O=C(COc1ccccc1)N1CCCC[C@@H]1c1noc(-c2cc[nH]n2)n1 | > 100000 nM | > 100000 nM | 221 nM | 225 nM | > 100000 nM | 22 µg/mL (≈ 62.3 µM) | 5.94 ×10⁻⁶ cm/s | 2.22
11 | Cc1cc(-c2nc([C@H]3CCCCN3C(=O)COc3ccccc3)no2)no1 | > 100000 nM | > 100000 nM | 166 nM | 448 nM | > 100000 nM | 39 µg/mL (≈ 106 µM) | 6.78 ×10⁻⁶ cm/s | 2.62
